Experimental data taken from patent publication US9981940B2, “Aryl sulfide derivatives and aryl sulfoxide derivatives as acaricides and insecticides” (BAYER CROPSCIENCE AKTIENGESELLSCHAFT, priority 2013, dated 2018).

Tests used:
[1] = log P by HPLC (OECD Guideline 117), method [b] neutral range; format: physicochemical; conditions: HPLC; for logP[b]: method [b] neutral range; for chromatographic logP: reversed-phase C18 HPLC column, neutral range, pH 7.8
Description: (§1) The log P values were determined analogously to OECD Guideline 117 (EC Directive 92/69/EEC) by HPLC (high-performance liquid chromatography) using reversed-phase columns (C 18), by the following methods:
[b] The LC-MS determination in the neutral range is effected at pH 7.8 with 0.001 molar aqueous ammonium hydrogencarbonate solution and acetonitrile as eluents; linear gradient from 10% acetonitrile to 95% acetonitrile.

[2] = log P by HPLC (OECD Guideline 117), method [a] acidic range; format: physicochemical; conditions: for logP[a]: HPLC, method [a] acidic range
Description: as §1
[a] The LC-MS determination in the acidic range is effected at pH 2.7 with 0.1% aqueous formic acid and acetonitrile (contains 0.1% formic acid) as eluents; linear gradient from 10% acetonitrile to 95% acetonitrile.

[3] = reversed-phase C18 HPLC column, pH 2.7, HPLC, acidic range, pH 2.7, read-out: log P[a]
[4] = reversed-phase C18 HPLC column, pH 2.7, HPLC method [a], acidic range, read-out: logP[a]

Row | Compound | logP[b] [1] | logP[a] [2] | chromatographic logP [2, 3] | further results
1 | Cc1cc(F)c(-n2nc(C(=O)O)n(C(C)C)c2=O)cc1SCC(F)(F)F [1-{2-Fluoro-4-methyl-5-[(2,2,2-trifluoroethyl)sulphanyl]phenyl}-4-isopropyl-5-oxo-4,5-dihydro-1H-1,2,4-triazole-3-carboxylic acid] | – | – | 2.16 | –
2 | Cc1ccc(SSc2cc(Br)ccc2C)cc1Br [4-Bromo-2-[(3-bromo-4-methylphenyl)disulphanyl]-1-methylbenzene] | – | – | > 7.36 | chromatographic logP [1]: > 7.36
3 | CC(C)n1c(Br)n[nH]c1=O [5-Bromo-4-isopropyl-2,4-dihydro-3H-1,2,4-triazol-3-one] | – | – | 0.86 | chromatographic logP [1]: 0.83
4 | N#Cc1cc(F)c(-n2nc(C(F)(F)F)n(C3CC3)c2=O)cc1[S+]([O-])CC(F)(F)F (centres unmarked) [Example 47, 4-[4-Cyclopropyl-5-oxo-3-(trifluoromethyl)-4,5-dihydro-1H-1,2,4-triazol-1-yl]-5-fluoro-2-[(2,2,2-trifluoroethyl)sulphinyl]benzonitrile] | – | – | 2.92 | chromatographic logP [1]: 2.84; chromatographic logP [2, 4]: 2.92
5 | COc1ccc(-n2nc(C(F)(F)F)n(C3CC3)c2=O)cc1[S+]([O-])CC(F)(F)F (centres unmarked) [Example 53] | 2.93 | 3.03 | – | –
6 | CC=Cc1nn(-c2cc(SCC(F)(F)F)c(C)cc2F)c(=O)n1C1CC1 [Example 81] | 3.49 | 3.55 | – | –
7 | COc1nn(-c2ccc(C(F)(F)F)c([S+]([O-])CC(F)(F)F)c2)c(=O)n1C (centres unmarked) [Example 96, 5-Methoxy-4-methyl-2-{3-[(2,2,2-trifluoroethyl)sulphinyl]-4-(trifluoromethyl)phenyl}-2,4-dihydro-3H-1,2,4-triazol-3-one] | – | – | 2.89 | chromatographic logP [1]: 2.83; chromatographic logP [2, 4]: 2.89
8 | N#Cc1cc(F)c(-n2nc(C(F)(F)F)n(C3CC3)c2=O)cc1F [XXIV-1, 4-[4-Cyclopropyl-5-oxo-3-(trifluoromethyl)-4,5-dihydro-1H-1,2,4-triazol-1-yl]-2,5-difluorobenzonitrile] | – | – | – | log P[a] ([2]; pH 2.7): 2.90; chromatographic logP ([2]; pH 2.7, log P[a]): 2.91

Further lines, with some results ahead:

Row | logP[b] [1] | logP[a] [2] | chromatographic logP [2, 3] | Compound | further results
9 | 1.96 | 1.96 | – | Cc1cc(C)c([S+]([O-])CC(F)(F)F)cc1-n1nnn(C)c1=O (racemic) [Example 297] | –
10 | 2.80 | 2.86 | – | N#Cc1cc(F)c(-n2nc(C(F)(F)F)oc2=O)cc1[S+]([O-])CC(F)(F)F (racemic) [Example 309] | –
11 | 1.97 | 1.98 | – | CCc1nn(-c2cc([S+]([O-])CC(F)(F)F)c(C)cc2F)c(=O)n1-c1cccnc1 (racemic) [Example 354] | –
12 | 3.72 | 3.75 | – | Cc1cc(F)c(-n2nnn(-c3ccc(C(F)(F)F)cc3)c2=O)cc1[S+]([O-])CC(F)(F)F (racemic) [Example 445] | –
13 | 3.19 | 3.27 | – | COc1nn(-c2ccc(C(F)(F)F)c([S+]([O-])CC(F)(F)F)c2)c(=O)n1C1CC1 (centres unmarked) [Example 147] | –
14 | 3.27 | 3.27 | – | Cc1ccc(-n2nc(OC3CCOC3)n(C)c2=O)cc1SCC(F)(F)F (centres unmarked) [Example 156] | –
15 | 1.84 | 1.89 | – | Cc1cc(F)c(-n2nc(OC3CCOC3)n(C)c2=O)cc1[S+]([O-])CC(F)(F)F (centres unmarked) [Example 161] | –
16 | 2.80 | 2.87 | – | Cc1ccc(-n2nc(OC(C)C)n(C)c2=O)cc1[S+]([O-])CC(F)(F)F (centres unmarked) [Example 163] | –
17 | 3.26 | 3.31 | – | Cc1ccc(-n2nc(OCC(C)C)n(C)c2=O)cc1[S+]([O-])CC(F)(F)F (centres unmarked) [Example 167] | –
18 | 3.54 | 3.60 | – | COc1nn(-c2ccc(Br)c(SCC(F)(F)F)c2)c(=O)n1C [Example 168] | –
19 | – | – | 4.11 | COC(=O)c1nn(-c2cc(SSc3cc(-n4nc(C(=O)OC)n(C(C)C)c4=O)c(F)cc3C)c(C)cc2F)c(=O)n1C(C)C [XXVIII-1, Dimethyl 1,1′-[disulphanediylbis(6-fluoro-4-methylbenzene-3,1-diyl)]bis(4-isopropyl-5-oxo-4,5-dihydro-1H-1,2,4-triazole-3-carboxylate)] | –
